Results from USRE39591E1, “6-O-substituted ketolides having antibacterial activity” (Abbott Laboratories, priority 1996, dated 2007).

System: up to 32 different microorganisms
Assay: in vitro antibacterial activity (MIC), agar dilution on Brain Heart Infusion (BHI) agar with Steers replicator
Type: cell-based
Conditions: unit assumed
Procedure, shortened: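 Erythromycin A served as the same-class reference for test-to-test comparability. Test compound was tested over twelve successive dilutions in BHI agar; plates were incubated 20 to 24 hours at 35°-37° C, with MIC taken as the lowest concentration showing no growth, slight haze, or sparse colonies.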

Row | SMILES | MIC (organism code AA) | MIC (organism code BB) | MIC (organism code CC) | MIC (organism code DD) | MIC (organism code EE) | MIC (organism code FF) | MIC (organism code GG) | MIC (organism code HH) | MIC (organism code II) | MIC (organism code JJ) | MIC (organism code KK) | MIC (organism code LL) | MIC (organism code MM) | MIC (organism code NN) | MIC (organism code OO) | MIC (organism code PP) | MIC (organism code QQ) | MIC (organism code RR) | MIC (organism code SS) | MIC (organism code TT) | other results
1 | CCC1OC(=O)C(C)C(=O)C(C)C(OC2OC(C)CC(N(C)C)C2O)C(C)(OCC=Cc2ccc(-c3ccon3)s2)CC(C)C(=O)C(C)C2NC(=O)OC12C (stereo not drawn) [Example 292, Compound of Formula (IX): L is CO, T is NH, R is —CH2CH═CH-(5-(3-ixoxazolyl)-2-thiophenyl)] | 0.1 µg/mL | 0.1 µg/mL | > 100 µg/mL | 0.1 µg/mL | 0.1 µg/mL | 0.1 µg/mL | > 100 µg/mL | 0.05 µg/mL | 0.02 µg/mL | ≤ 0.005 µg/mL | 0.02 µg/mL | 0.01 µg/mL | 12.5 µg/mL | 0.05 µg/mL | 0.02 µg/mL | 0.1 µg/mL | 50 µg/mL | 0.2 µg/mL | 100 µg/mL | > 100 µg/mL | MIC (organism code UU): 0.78 µg/mL; MIC (organism code VV): 0.02 µg/mL; MIC (organism code WW): 2 µg/mL; MIC (organism code XX): 0.03 µg/mL; MIC (organism code YY): 0.03 µg/mL; MIC (organism code ZZ): 16 µg/mL; MIC (organism code ZZA): 0.25 µg/mL
2 | CCC1OC(=O)C(C)C(=O)C(C)C(OC2OC(C)CC(N(C)C)C2O)C(C)(OCC=Cc2cn(C)c(=O)n(C)c2=O)CC(C)C(=O)C(C)C2NC(=O)OC12C (stereo not drawn) [Example 293, Compound of Formula (IX): L is CO, T is NH, R is —CH2—CH═CH-(1,3-dimethyl-2,4-dioxo-5-pyrimidinyl)] | 0.39 µg/mL | 0.39 µg/mL | > 100 µg/mL | 0.39 µg/mL | 0.39 µg/mL | 0.39 µg/mL | > 100 µg/mL | 0.39 µg/mL | 0.1 µg/mL | 0.02 µg/mL | 0.05 µg/mL | 0.02 µg/mL | > 100 µg/mL | 0.78 µg/mL | 0.05 µg/mL | 0.2 µg/mL | > 100 µg/mL | 0.78 µg/mL | > 100 µg/mL | > 100 µg/mL | MIC (organism code UU): 12.5 µg/mL; MIC (organism code VV): 0.78 µg/mL; MIC (organism code WW): 16 µg/mL; MIC (organism code XX): 0.03 µg/mL; MIC (organism code YY): 0.03 µg/mL; MIC (organism code ZZ): > 128 µg/mL; MIC (organism code ZZA): 0.5 µg/mL
